According to patent US20240279215A1 (Cytokinetics, Incorporated, priority 2022, published 2024):
Values joined by “and” are separate entries in the source; they are usually repeats but may differ in a detail not shown here. Equal values may be shown once.

Legend:
[1] = test system: P-gp (MDR1); test: MDR1-MDCK bidirectional permeability assay; settings: dog, MDCK-MDR1, pH 7.4, Efflux ratio
Procedure: (§1) A bidirectional permeability assay using Madin Darby canine kidney cells expressing multi-drug resistance gene 1 (MDCK-MDR1) is routinely used to evaluate discovery compounds' BBB permeability and drug efflux toward the advancement of discovery compounds with brain penetration.
(§2) MDCK-MDR1 Cells (NIH cell line) were obtained from the National Institutes of Health. […] Cell culture medium was replaced every other day, beginning no later than 24 hours after the initial plating. […] The dosing solution concentration was 1 μM for the test article in the assay buffer. Cell monolayers were dosed on the apical side (A-to-B) or basolateral side (B-to-A) and incubated at 37° C. under an atmosphere of 5% CO2 in a humidified incubator. Samples were taken from the donor and receiver chambers at 120 minutes. Each determination was performed in duplicate. After the 120 min transport period, the flux of lucifer yellow was also measured for each monolayer to ensure no damage was inflicted to the cell monolayers during the transport period. All samples were assayed by LC-MS/MS (Waters XSelect HSS T3 C18, 2.5 m, 2.1×50 mm) using electrospray ionization with 0.1% formic acid in water (mobile phase A) and 0.1% formic acid in acetonitrile (mobile phase B) as mobile phases. The apparent permeability coefficient (Papp), in units of cm per second, was calculated for MDCK-MDR1 Cells (NIH cell line) drug transport assays using the following equation:
(§3) Where VA is the volume (in mL) in the acceptor well, Area is the surface area of the membrane (0.143 cm^2 for Transwell-96 Well Permeable Supports), and time is the total transport time in seconds.
(§4) The leakage of Lucifer Yellow (LY), in unit of percentage (%), can be calculated using the following equation:
(§5) LY leakage of <1% is acceptable to indicate the well-qualified MDCK-MDR1(NIH) monolayer.

[2] = test system: MDCK-MDR1 cells (P-gp, MDR1); test: MDR1-MDCK bidirectional permeability assay; settings: for PappAB: A to B
Procedure: as §1, §2, §3, §4, §5

[3] = target: human NAMPT (Homo sapiens (Human), UniProt P43490); test: NMN fluorescence biochemical assay (human recombinant NAMPT enzyme assay)
Chain of human NAMPT (P43490 whole entry): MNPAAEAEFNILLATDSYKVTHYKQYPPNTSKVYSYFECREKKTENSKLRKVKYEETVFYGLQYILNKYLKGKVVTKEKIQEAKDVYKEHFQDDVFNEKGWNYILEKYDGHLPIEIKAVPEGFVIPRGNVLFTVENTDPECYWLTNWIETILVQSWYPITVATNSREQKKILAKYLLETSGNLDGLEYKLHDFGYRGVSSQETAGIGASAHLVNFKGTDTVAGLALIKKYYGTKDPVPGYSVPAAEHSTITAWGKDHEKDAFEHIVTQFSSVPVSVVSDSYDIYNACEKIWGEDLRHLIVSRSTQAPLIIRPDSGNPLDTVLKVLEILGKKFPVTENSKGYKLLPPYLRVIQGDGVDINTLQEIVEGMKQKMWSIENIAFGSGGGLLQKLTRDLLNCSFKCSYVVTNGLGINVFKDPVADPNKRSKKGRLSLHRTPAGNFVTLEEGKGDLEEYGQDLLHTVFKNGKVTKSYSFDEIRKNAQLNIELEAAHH
How it was run: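 Activation of recombinant human NAMPT (6 nM) was tested with 2.5 mM ATP, 20 μM PRPP and 150 μM nicotinamide in 50 mM HEPES pH 7.2 for 60 min at ambient temperature. NMN was derivatized with acetophenone/KOH/formic acid and read by fluorescence (355/460 nm) after 40 min.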

Row | Structure (SMILES) | efflux ratio at 120 min, 1 μM [1] | PappAB [2] | AC1.4 Human [3] [µM] | EC50 [3] [µM] | Efflux ratio [2]
1 | O=C(Nc1ccc(COC2CCN(C3COC3)CC2)cc1)OCc1ccc(Cl)cc1 [Compound 232, 4-chlorobenzyl (4-(((1-(oxetan-3-yl)piperidin-4-yl)oxy)methyl)phenyl)carbamate] | 1.5 | 9.8 | 2.17 | 20.8 | 
2 | CC(C)S(=O)(=O)N1CCC(Cc2ccc(NC(=O)OCc3cnco3)cc2)CC1 [Compound 464, oxazol-5-ylmethyl (4-((1-(isopropylsulfonyl)piperidin-4-yl)methyl)phenyl)carbamate] | 2.19 | 9.11 | 0.14 | 3.07 | 
3 | O=C(Nc1ccc(CC2CCN(CC(F)(F)F)CC2)cc1)OCc1cnco1 [Compound 70, oxazol-5-ylmethyl (4-((1-(2,2,2-trifluoroethyl)piperidin-4-yl)methyl)phenyl)carbamate] | 1.04 | 9.10 | 0.61 | 22.9 | 
4 | COC(=O)N1CCC(Cc2ccc(NC(=O)OCc3ccncc3)cc2)CC1 [Compound 23, methyl 4-(4-(((pyridin-4-ylmethoxy)carbonyl)amino)benzyl)piperidine-1-carboxylate] | 2 | 6.30 | 0.32 | 2.76 | 
5 | O=C(Nc1ccc(CCC2CCN(C3COC3)CC2)cc1)OCc1cnco1 [Compound 132, oxazol-5-ylmethyl (4-(2-(1-(oxetan-3-yl)piperidin-4-yl)ethyl)phenyl)carbamate] | 2.26 | 13.54 | 1.06 | 41.1 | 
6 | O=C(Nc1ccc(CC2CCN(CC(F)F)CC2)cc1)OCc1cnco1 [Compound 59, oxazol-5-ylmethyl (4-((1-(2,2-difluoroethyl)piperidin-4-yl)methyl)phenyl)carbamate] | 1.11 | 13.26 | 0.56 | 48.9 | 
7 | CC(=O)N1CCC(c2ccc(NC(=O)OCc3cnco3)cc2)CC1 [Compound 8, 1,3-oxazol-5-ylmethyl N-[4-(1-acetylpiperidin-4-yl)phenyl]carbamate] | 5.41 | 9.77 | 0.14 | 32.6 | 
8 | O=C(NCc1ccc(Cl)cc1)Nc1ccc(CC2CCN(C3COC3)CC2)cc1 [Comparator 1, 1-(4-chlorobenzyl)-3-(4-((1-(oxetan-3-yl)piperidin-4-yl)methyl)phenyl)urea, reference compound] | 14.7 | 1.85 |  |  | 
9 | O=C(Nc1ccc(CC2CCN(CC(F)(F)F)CC2)cc1)OCc1cncs1 [Compound 467, thiazol-5-ylmethyl (4-((1-(2,2,2-trifluoroethyl)piperidin-4-yl)methyl)phenyl)carbamate] |  |  | 1.07 | 14.5 | 
10 | CCS(=O)(=O)N1CC2(CC(Cc3ccc(NC(=O)OCc4cnco4)cc3F)C2)C1 [Compound 386, oxazol-5-ylmethyl (4-((2-(ethylsulfonyl)-2-azaspiro[3.3]heptan-6-yl)methyl)-3-fluorophenyl)carbamate] |  |  | 0.14 | 14.1 | 
11 | CN1CC(=O)NC[C@@H]1c1ccc(NC(=O)OCc2ccc(F)cc2)cc1 [Compound 278, 4-fluorobenzyl (S)-(4-(1-methyl-5-oxopiperazin-2-yl)phenyl)carbamate] |  |  | 3.40 | 17.4 | 
12 | COC(=O)N1CC2CC(C1)C2Cc1ccc(NC(=O)OCc2cnco2)cc1 (stereo not shown) [Compound 435, methyl 6-(4-(((oxazol-5-ylmethoxy)carbonyl)amino)benzyl)-3-azabicyclo[3.1.1]heptane-3-carboxylate] |  |  | 0.08 | 7.52 | 
13 | O=C(Nc1ccc(CC2CCN(C3COC3)CC2)cc1)OCc1cncs1 [Compound 466, thiazol-5-ylmethyl (4-((1-(oxetan-3-yl)piperidin-4-yl)methyl)phenyl)carbamate] |  |  | 1.19 | 14.5 | 
14 | COC(=O)N1CCC(Cc2ccc(NC(=O)OCc3cnco3)cc2)C2CC21 (stereo not shown) [Compound 456, methyl 5-(4-(((oxazol-5-ylmethoxy)carbonyl)amino)benzyl)-2-azabicyclo[4.1.0]heptane-2-carboxylate] |  |  | 0.23 | 17.8 | 

Further lines, results first:

Row | efflux ratio at 120 min, 1 μM [1] | PappAB [2] | AC1.4 Human [3] [µM] | EC50 [3] [µM] | Efflux ratio [2] | Structure (SMILES)
15 | 1.93 | 3.38 and 3.4 | 0.43 | 2.4 | 1.9 | CC(=O)N1CCC(Cc2ccc(NC(=O)OCc3ccc(Cl)cc3)cc2)CC1 [Compound 40, 4-chlorobenzyl (4-((1-acetylpiperidin-4-yl)methyl)phenyl)carbamate]
16 | 3.74 | 2.79 | 0.30 | 2 |  | Cc1ccc(C(=O)NCc2ccc(NC(=O)OCc3ccc(Cl)cc3)cc2)cn1 [Compound 21, (4-chlorophenyl)methyl N-(4-{[(6-methylpyridin-3-yl)formamido]methyl}phenyl)carbamate]
17 | 7.02 | 5.32 | 0.07 | 0.29 |  | O=C(Nc1ccc(CN2CCC[C@@H]2c2cccnc2)cc1)OCc1ccc(CO)cc1 [Compound 5, [4-(hydroxymethyl)phenyl]methyl N-(4-{[(2R)-2-(pyridin-3-yl)pyrrolidin-1-yl]methyl}phenyl)carbamate]
18 |  |  | 4.12 | 20 |  | Cc1ccc(Cc2ccc(NC(=O)OCc3ccc(Cl)cc3)cc2)cn1 [Compound 292, 4-chlorobenzyl (4-((6-methylpyridin-3-yl)methyl)phenyl)carbamate]
19 |  |  | 0.62 | 5.27 |  | COC1CCN(C(=O)N[C@@H](C)c2ccc(NC(=O)OCc3ccc(Cl)cc3)cc2)CC1 [Compound 72, 4-chlorobenzyl (S)-(4-(1-(4-methoxypiperidine-1-carboxamido)ethyl)phenyl)carbamate]
20 |  |  | 1.32 | 1.27 |  | COc1ccc(C(=O)NCc2ccc(NC(=O)OCc3ccc(Cl)cc3)cc2)cn1 [Compound 158, (4-chlorophenyl)methyl N-(4-{[(6-methoxypyridin-3-yl)formamido]methyl}phenyl)carbamate]
21 |  |  | 2.62 | 17.9 |  | COc1cnn(C)c1C(=O)N(C)Cc1ccc(NC(=O)OCc2ccc(Cl)cc2)cc1 [Compound 253, (4-chlorophenyl)methyl N-(4-{[1-(4-methoxy-2-methylpyrazol-3-yl)-N-methylformamido]methyl}phenyl)carbamate]
22 |  |  | 2.09 | 6.14 |  | O=C(Nc1ccc(CNC(=O)c2cnccn2)cc1)OCc1ccc(Cl)cc1 [Compound 226, (4-chlorophenyl)methyl N-{4-[(pyrazin-2-ylformamido)methyl]phenyl}carbamate]
23 |  |  | 1.07 | 8.6 |  | Cc1ccc(C(=O)NCc2ccc(NC(=O)OCc3ccc(C(F)F)cc3)cc2)cn1 [Compound 133, (4-(difluoro-13-methyl)phenyl)methyl (4-((6-methylnicotinamido)methyl)phenyl)carbamate]
24 |  |  | 0.59 | 5.12 |  | Cc1ccc(C(=O)NCc2ccc(NC(=O)OCc3cncs3)cc2)cn1 [Compound 66, thiazol-5-ylmethyl (4-((6-methylnicotinamido)methyl)phenyl)carbamate]
25 |  |  | 0.64 | 1.42 |  | CN(Cc1ccc(NC(=O)OCc2ccc(Cl)cc2)cc1)C(=O)c1ccnn1C1CCC1 [Compound 74, (4-chlorophenyl)methyl N-(4-{[1-(2-cyclobutylpyrazol-3-yl)-N-methylformamido]methyl}phenyl)carbamate]
26 |  |  | 0.50 | 2.02 |  | CN(Cc1ccc(NC(=O)OCc2ccc(Cl)cc2)cc1)C(=O)c1cc[nH]n1 [Compound 49, (4-chlorophenyl)methyl N-{4-[(N-methyl-1-1H-pyrazol-3-ylformamido)methyl]phenyl}carbamate]
27 |  |  | 3.32 | 18.3 |  | Cc1coc(C(=O)NCc2ccc(NC(=O)OCc3ccc(Cl)cc3)cc2)n1 [Compound 276, (4-chlorophenyl)methyl N-(4-{[(4-methyl-1,3-oxazol-2-yl)formamido]methyl}phenyl)carbamate]
28 |  |  | 4.95 | 22.9 |  | O=C(Nc1ccc(CNC(=O)c2ccc(F)cn2)cc1)OCc1ccc(Cl)cc1 [Compound 305, (4-chlorophenyl)methyl N-(4-{[(5-fluoropyridin-2-yl)formamido]methyl}phenyl)carbamate]
29 |  |  | 2.18 | 7.8 |  | O=C(Nc1ccc(Cc2ccccn2)cc1)OCc1ccc(Cl)cc1 [Compound 233, 4-chlorobenzyl (4-(pyridin-2-ylmethyl)phenyl)carbamate]
30 |  |  | 23.64 | 38.8 |  | O=C(Nc1ccc(COC2CN(C3COC3)C2)cc1)OCc1ccc(Cl)cc1 [Compound 354, 4-chlorobenzyl (4-(((1-(oxetan-3-yl)azetidin-3-yl)oxy)methyl)phenyl)carbamate]
31 |  |  | 0.26 | 0.59 |  | Cc1nn(C)c(C(=O)NCc2ccc(NC(=O)OCc3ccc(Cl)cc3)cc2)c1C [Compound 19, (4-chlorophenyl)methyl N-(4-{[(2,4,5-trimethylpyrazol-3-yl)formamido]methyl}phenyl)carbamate]
32 |  |  | 2.04 | 2.16 |  | O=C(Cc1ccc(NC(=O)OCc2ccc(Cl)cc2)cc1)N[C@H]1CC[C@H](OC(F)F)CC1 [Compound 221, (4-chlorophenyl)methyl N-[4-({[(1r,4r)-4-(difluoromethoxy)cyclohexyl]carbamoyl}methyl)phenyl]carbamate]
